# Experimental data: patent publication US10743540B2, “3-amino-1,2,4-triazine derivatives and their use for controlling undesired plant growth” (BAYER CROPSCIENCE AKTIENGESELLSCHAFT, priority 2016, dated 2020)
# Experiments:
# Assay type in all cases: in vivo
# STEME: Stellaria media [1] = assay: Post-emergence herbicidal effect; conditions: application rate 320 g/ha, treated at one-leaf stage, assessed visually after about 3 weeks, 100% = plants have died
# Procedure: (§1) [table] 2. Post-Emergence Herbicidal Effect and Crop Plant Compatibility Seeds of monocotyledonous and dicotyledonous weed and crop plants are laid out in sandy loam soil in wood-fiber pots, covered with soil and cultivated in a greenhouse under good growth conditions. 2 to 3 weeks after sowing, the test plants are treated at the one-leaf stage. The compounds of the invention, formulated in the form of wettable powders (WP) or as emulsion concentrates (EC), are then sprayed onto the green parts of the plants as aqueous suspension or emulsion at a water application rate equating to 600 to 800 L/ha with addition of 0.2% wetting agent. After the test plants have been left to stand in the greenhouse under optimal growth conditions for about 3 weeks, the action of the preparations is assessed visually in comparison to untreated controls (herbicidal action in percent (%): 100% activity=the plants have died, 0% activity=like control plants).
# VERPE: Veronica persica [2] = assay: Post-emergence herbicidal effect; conditions: application rate 320 g/ha, treated at one-leaf stage, assessed visually after about 3 weeks, 100% = plants have died
# Procedure: as §1
# [3] = system: AMARE: Amaranthus retroflexus; assay: Post-emergence herbicidal effect; conditions: application rate 320 g/ha, treated at one-leaf stage, assessed visually after about 3 weeks, 100% = plants have died
# Procedure: as §1
# VIOTR: Viola tricolor = assay: Post-emergence herbicidal effect; conditions: application rate 320 g/ha, treated at one-leaf stage, assessed visually after about 3 weeks, 100% = plants have died
# Procedure: as §1
# STEME: Stellaria media [4] = assay: Pre-emergence herbicidal effect; conditions: application rate 320 g/ha, scored visually after 3 weeks, 100% = plants have died, 0% = like control plants
# Description: (§2) 1. Pre-Emergence Herbicidal Effect and Crop Plant Compatibility Seeds of monocotyledonous and dicotyledonous weed plants and crop plants are laid out in sandy loam soil in wood-fiber pots and covered with soil. The compounds of the invention, formulated in the form of wettable powders (WP) or as emulsion concentrates (EC), are then applied to the surface of the covering soil as aqueous suspension or emulsion at a water application rate equating to 600 to 800 L/ha with addition of 0.2% wetting agent. After the treatment, the pots are placed in a greenhouse and kept under good growth conditions for the trial plants. The damage to the test plants is scored visually after a test period of 3 weeks by comparison with untreated controls (herbicidal activity in percent (%): 100% activity=the plants have died, 0% activity=like control plants). [table]
# VERPE: Veronica persica [5] = assay: Pre-emergence herbicidal effect; conditions: application rate 320 g/ha, scored visually after 3 weeks, 100% = plants have died, 0% = like control plants
# Description: as §2
# [6] = system: POLCO: Polygonum convolvulus; assay: Pre-emergence herbicidal effect; conditions: application rate 320 g/ha, scored visually after 3 weeks, 100% = plants have died, 0% = like control plants
# Description: as §2
# [7] = system: ECHCG: Echinochloa crus-galli; assay: Pre-emergence herbicidal effect; conditions: application rate 320 g/ha, scored visually after 3 weeks, 100% = plants have died, 0% = like control plants
# Description: as §2
# SETVI: Setaria viridis = assay: Pre-emergence herbicidal effect; conditions: application rate 320 g/ha, scored visually after 3 weeks, 100% = plants have died, 0% = like control plants
# Description: as §2
# [8] = system: MATIN: Matricaria inodora; assay: Pre-emergence herbicidal effect; conditions: application rate 320 g/ha, scored visually after 3 weeks, 100% = plants have died, 0% = like control plants
# Description: as §2
# [9] = system: LOLMU: Lolium multiflorum; assay: Pre-emergence herbicidal effect; conditions: application rate 320 g/ha, scored visually after 3 weeks, 100% = plants have died, 0% = like control plants
# Description: as §2
# [10] = system: ABUTH: Abutilon theophrasti; assay: Pre-emergence herbicidal effect; conditions: application rate 320 g/ha, scored visually after 3 weeks, 100% = plants have died, 0% = like control plants
# Description: as §2
# [11] = system: ALOMY: Alopecurus myosuroides; assay: Pre-emergence herbicidal effect; conditions: application rate 320 g/ha, scored visually after 3 weeks, 100% = plants have died, 0% = like control plants
# Description: as §2
SMILES,Herbicidal activity with respect to [%] STEME (STEME: Stellaria media [1]),Herbicidal activity with respect to [%] VERPE (VERPE: Veronica persica [2]),Herbicidal activity with respect to [%] AMARE [3],Herbicidal activity with respect to [%] VIOTR (VIOTR: Viola tricolor),Herbicidal activity with respect to [%] STEME (STEME: Stellaria media [4]),Herbicidal activity with respect to [%] VERPE (VERPE: Veronica persica [5]),Herbicidal activity with respect to [%] POLCO [6],Herbicidal activity with respect to [%] ECHCG [7],Herbicidal activity with respect to [%] SETVI (SETVI: Setaria viridis),Herbicidal activity with respect to [%] MATIN [8],Herbicidal activity with respect to [%] LOLMU [9],Herbicidal activity with respect to [%] ABUTH [10],Herbicidal activity with respect to [%] ALOMY [11]
N#Cc1nnc(NC2CCOc3ccc(F)cc32)nc1N (racemic) [Example 1.64],90%,100%,100%,80%,100%,100%,100%,100%,100%,90%,–,–,–
C[S+]([O-])c1nnc(N[C@@H]2CCCc3ccccc32)nc1N (stereo partly drawn) [Example 1.65],100%,80%,–,80%,100%,100%,100%,100%,100%,100%,100%,90%,–
N#Cc1nnc(N[C@@H]2CCCc3ccccc32)nc1N [Example 1.37],100%,100%,–,–,100%,100%,100%,100%,100%,100%,100%,–,100%
Cc1ccc2c(c1)[C@H](Nc1nnc(C(=O)NC(C)C)c(N)n1)[C@@H](C)C2 [Example 1.39],80%,100%,–,90%,100%,100%,80%,90%,100%,100%,–,–,80%
N#Cc1nnc(NC2CCOc3ccccc32)nc1N (racemic) [Example 1.60],90%,100%,80%,–,100%,100%,–,–,–,–,–,–,–
Cc1ccc2c(c1)[C@H](Nc1nnc(C(F)(F)F)c(N)n1)CC2 [Example 1.31],90%,–,–,–,100%,100%,100%,100%,100%,100%,100%,–,100%
"CCOC(=O)c1nnc(N[C@@H]2CCCc3ccccc32)nc1N [Example 1.32, Ethyl 5-amino-3-[(1R)-1,2,3,4-tetrahydronaphthalen-1-ylamino]-1,2,4-triazine-6-carboxylate]",80%,80%,80%,–,100%,100%,–,100%,90%,100%,–,–,–
